Results published in US20020028805A1, “Methods of inhibiting uterotrophic effects of estrogenic agents” (American Home Products Corporation, priority 2000, published 2002).
Entries after “also recorded” stand apart in the source; their conditions may differ.

System: immature rat uterus
Assay: 3-day uterine model: uterine wet weight in immature rats
Details: for Effect on ethinyl estradiol induced uterine wet weight increase (in words): 100 μg in combination with 0.5 μg ethinyl estradiol; for Effect on ethinyl estradiol induced uterine wet weight increase (in words) / Effect on raloxifene induced uterine stimulation (in words): three days; for % increase weight (vs. control) / Mean Wet Weight: 3 days; for Effect on raloxifene induced uterine stimulation (in words): co-administered with raloxifene (10 μg; 1 μmg [sic], ~0.2 mg/kg), 1-100 μg, 0.2 mg/kg; for Agonist effect on uterine wet weight (in words) / Increase in uterine wet weight over control: compound alone; for Agonist effect on uterine wet weight (in words): 10 and 100 μg/rat, three days of treatment, 1-way ANOVA; for Increase in uterine wet weight over control: for TSE-424 the highest increase seen
[1] = Experiment No. 1, 10 μg alone, s.c.
[2] = Experiment No. 1, 100 μg + EE (0.5 μg ethinyl estradiol), s.c.
[3] = Experiment No. 1, 100 μg alone, s.c.
[4] = Experiment No. 2, 1 μg + Raloxifene 10 μg
[5] = Experiment No. 2, 10 μg + Raloxifene 10 μg
[6] = Experiment No. 2, 10 μg alone, s.c.
[7] = Experiment No. 2, 50 μg + Raloxifene 10 μg
[8] = Experiment No. 2, 100 μg + Raloxifene 10 μg
[9] = Experiment No. 2, 100 μg alone, s.c.
[10] = Experiment No. 3, 10 μg alone, s.c.
[11] = Experiment No. 3, 100 μg + EE (0.5 μg ethinyl estradiol), s.c.
[12] = Experiment No. 3, 100 μg alone, s.c.
[13] = Experiment No. 4, 1 μg + Raloxifene 10 μg
[14] = Experiment No. 4, 10 μg + Raloxifene 10 μg
[15] = Experiment No. 4, 10 μg alone, s.c.
[16] = Experiment No. 4, 50 μg + Raloxifene 10 μg
[17] = Experiment No. 4, 100 μg + Raloxifene 10 μg
[18] = Experiment No. 4, 100 μg alone, s.c.

Cc1c(-c2ccc(O)cc2)n(Cc2ccc(OCCN3CCCCC3)cc2)c2ccc(O)cc12 [ERA-923, 2-(4-Hydroxy-phenyl)-3-methyl-1-(4-(2-piperidin-1-yl-ethoxy)-benzyl]-1H-indol-5-ol]
Effect on ethinyl estradiol induced uterine wet weight increase (in words): reduced ethinyl estradiol induced wet weight increases to control values; also recorded: reduced the increased wet weight stimulated by ethinyl estradiol to control | % increase weight (vs. control) [1]: 129.8% | Mean Wet Weight [1]: 39.9 mg | % increase weight (vs. control) [2]: 79.1% | Mean Wet Weight [2]: 24.3 mg | % increase weight (vs. control) [3]: 89.3% | Mean Wet Weight [3]: 27.5 mg | % increase weight (vs. control) [4]: 144.4% | Mean Wet Weight [4]: 38.7 mg | % increase weight (vs. control) [5]: 100.8% | Mean Wet Weight [5]: 27.0 mg | % increase weight (vs. control) [6]: 93.5% | Mean Wet Weight [6]: 25.1 mg | % increase weight (vs. control) [7]: 81.6% | Mean Wet Weight [7]: 21.9 mg | % increase weight (vs. control) [8]: 81.6% | Mean Wet Weight [8]: 21.9 mg | % increase weight (vs. control) [9]: 75.1% | Mean Wet Weight [9]: 20.1 mg | Effect on raloxifene induced uterine stimulation (in words): antagonized the uterine stimulation; also recorded: reduced to control values or less at all doses except for 1 μg | Agonist effect on uterine wet weight (in words): neither ERA-923 nor TSE-424 statistically increased uterine wet weight; also recorded: neither ERA-923 (Experiment No.1) nor TSE-424 (Experiment No. 3) treatments resulted in a statistical increase in uterine wet weight

C#C[C@]1(O)CC[C@H]2[C@@H]3CCc4cc(O)ccc4[C@H]3CC[C@@]21C [Ethinyl estradiol, 17α-ethinyl estradiol, reference compound]
% increase weight (vs. control) (Experiment No. 1, 0.5 μg s.c.): 205.7% | Mean Wet Weight (Experiment No. 1, 0.5 μg s.c.): 63.2 mg | % increase weight (vs. control) (Experiment No. 2, 0.5 μg s.c.): 317.3% | Mean Wet Weight (Experiment No. 2, 0.5 μg s.c.): 85.1 mg | % increase weight (vs. control) (Experiment No. 3, 0.5 μg s.c.): 262.1% | Mean Wet Weight (Experiment No. 3, 0.5 μg s.c.): 94.1 mg | % increase weight (vs. control) (Experiment No. 4, 0.5 μg s.c.): 406.4% | Mean Wet Weight (Experiment No. 4, 0.5 μg s.c.): 98.7 mg

Cc1c(-c2ccc(O)cc2)n(Cc2ccc(OCCN3CCCCCC3)cc2)c2ccc(O)cc12 [TSE-424, 1-[4-(2-Azepan-1yl-ethoxy)-benzyl]-2-(4-hydroxy-phenyl)-3-methyl-1H-indol-5-ol]
Effect on ethinyl estradiol induced uterine wet weight increase (in words): reduced ethinyl estradiol induced wet weight increases to control values; also recorded: less than control values | % increase weight (vs. control) [10]: 92.4% | Mean Wet Weight [10]: 33.2 mg | % increase weight (vs. control) [11]: 77.7% | Mean Wet Weight [11]: 27.9 mg | % increase weight (vs. control) [12]: 81.9% | Mean Wet Weight [12]: 29.4 mg | % increase weight (vs. control) [13]: 170.4% | Mean Wet Weight [13]: 41.4 mg | % increase weight (vs. control) [14]: 142% | Mean Wet Weight [14]: 34.5 mg | % increase weight (vs. control) [15]: 135.0% | Mean Wet Weight [15]: 32.7 mg | % increase weight (vs. control) [16]: 139.3% | Mean Wet Weight [16]: 33.8 mg | % increase weight (vs. control) [17]: 136.5% | Mean Wet Weight [17]: 33.2 mg | % increase weight (vs. control) [18]: 109.4% | Mean Wet Weight [18]: 26.6 mg | Effect on raloxifene induced uterine stimulation (in words): antagonized the uterine stimulation; also recorded: reduced the increased wet weight stimulated by raloxifene to the highest increase seen with TSE-424 alone | Agonist effect on uterine wet weight (in words): neither ERA-923 nor TSE-424 statistically increased uterine wet weight; also recorded: neither ERA-923 (Experiment No.1) nor TSE-424 (Experiment No. 3) treatments resulted in a statistical increase in uterine wet weight | Increase in uterine wet weight over control: 35%

O=C(c1ccc(OCCN2CCCCC2)cc1)c1c(-c2ccc(O)cc2)sc2cc(O)ccc12 [Raloxifene, raloxifene, reference compound]
% increase weight (vs. control) [6]: 172.4% | Mean Wet Weight [6]: 46.2 mg | % increase weight (vs. control) [9]: 145.8% | Mean Wet Weight [9]: 39.1 mg | % increase weight (vs. control) [15]: 185.2% | Mean Wet Weight [15]: 45.0 mg | % increase weight (vs. control) [18]: 175.9% | Mean Wet Weight [18]: 42.7 mg | Agonist effect on uterine wet weight (in words): statistically increased uterine wet weights at both tested doses | Increase in uterine wet weight over control: 75-85%
